Test results as given in PubChem BioAssay AID1626 (SRMLSC, 2009).

Tested on: M. tuberculosis H37Rv growth inhibition
Test: M. tuberculosis H37Rv growth inhibitors, H37Rv strain (AID 1626)
Details: for IC90: measured here: IC90 against H37Rv; for CC50: measured here: Vero cell cytotoxicity

With `CCOc1ccc(NC2=C(OC)C(=O)c3ccccc3C2=O)cc1` the IC50 was 28.3 µM, the IC90 was 44.1 µM and the CC50 was over 40 µM.

`Cc1sc2nc(CN3CCOCC3)[nH]c(=S)c2c1C` showed an IC50 of 13.3 µM, an IC90 of over 100 µM and a CC50 of over 40 µM.

With `O=C(c1ccccc1)N1CCN(c2ccc([N+](=O)[O-])cc2-n2cccc2)CC1` the IC50 was 4.17 µM, the IC90 was 7.26 µM and the CC50 was over 40 µM.

`COCC(=O)Nc1ccc(Br)c(C)c1` was tested, and the IC90 was over 100 µM.

Work on `C(=C\c1nc(N2CCCCCC2)c2ccccc2n1)/c1ccccc1` yielded an IC50 of 8.43 µM, an IC90 of 11.1 µM and a CC50 of 37.5 µM.

Work on `O=C(NCCCn1ccnc1)c1nn2c(C(F)(F)F)cc(-c3ccc(Br)cc3)nc2c1Cl` yielded an IC50 of 6.53 µM, an IC90 of 9.35 µM and a CC50 of over 40 µM.

For `CO[C@H]1C=CO[C@@]2(C)Oc3c(C)c(O)c4c(O)c(c5c(c4c3C2=O)NC2(CCN(CC(C)C)CC2)N=5)=NC(=O)C(C)=CC=C[C@H](C)[C@H](O)[C@@H](C)[C@@H](O)[C@@H](C)[C@H](OC(C)=O)[C@@H]1C`, the IC50 was under 0.195 µM, the IC90 was under 0.195 µM and the CC50 was over 40 µM.

`COc1cc2c(cc1NC(=O)CSc1nc3ccccc3[nH]1)oc1ccccc12` gave an IC50 of 10.4 µM, an IC90 of over 100 µM and a CC50 of over 40 µM.

In the case of `Cc1ccc(C)c(-c2cc(C(=O)Nc3nccs3)c3ccccc3n2)c1`, the IC50 is reported as 8.18 µM and the IC90 is reported as 11.3 µM.

For `CC(=O)N1CCN(c2cc3c(cc2F)c(=O)c(C(=O)O)cn3C2CC2)CC1`, the IC50 was 0.949 µM and the IC90 was 1.56 µM.

`COc1ccccc1OC(=O)CCN1c2ccccc2Sc2ccccc21` was tested, and the IC50 was 11.8 µM and the IC90 was 17.5 µM.

In the case of `COc1ccc(C[C@H]2CN3C(=NC[C@@H]3Cc3ccccc3)N2CCNC(=O)CCC2CCCCC2)cc1`, the IC50 is reported as 9.05 µM, the IC90 is reported as 11.6 µM and the CC50 is reported as 17.7 µM.

`Oc1ccc(Cl)cc1N=Cc1sc2ccccc2c1Cl` showed an IC50 of 6.53 µM, an IC90 of 66.7 µM and a CC50 of over 40 µM.

With `COc1ccc(NC(=O)CSc2ncn(-c3ccccc3)n2)cc1Cl` the IC90 was over 100 µM.

`O=C(Nc1nnc(-c2ccco2)o1)c1ccc([N+](=O)[O-])s1` gave an IC50 of 6.03 µM, an IC90 of 8.57 µM and a CC50 of 16.6 µM.

In the case of `Cc1ccc(Oc2nc(CN3CCOCC3)nc3sc4c(c23)CCC(C)C4)cc1` (centres undefined), the IC50 is reported as 17.1 µM, the IC90 is reported as 22.4 µM and the CC50 is reported as over 40 µM.

Work on `CCCCC(=O)OCC(=O)Nc1ccc(SC(F)F)cc1` yielded an IC90 of over 100 µM.

For `Cc1cccc(-n2cc(CN(C)Cc3nccn3C)c(-c3cccc(F)c3)n2)c1`, the IC50 was 7.43 µM, the IC90 was 12.1 µM and the CC50 was over 40 µM.

`O=c1oc2ccccc2nc1/C=C(O)/C=C\c1ccccc1` was tested, and the IC50 was 4.33 µM and the IC90 was 13.1 µM.

For `COc1ccc(N2CN=C3SCC(=O)N3C2)cc1`, the IC50 was 46.5 µM and the IC90 was over 100 µM.

`CC(C)(C)C(=O)Nc1ccc(-c2nc3ccccc3c(=O)o2)cc1` showed an IC50 of 9.98 µM and an IC90 of 20.2 µM.

With `CC(C)(C)c1ccc(-c2nc(NCc3cccnc3)c3ccccc3n2)cc1` the IC50 was 4.81 µM, the IC90 was 7.46 µM and the CC50 was over 40 µM.

For `CCOC(=O)CSc1nnc(-c2ccc(NS(=O)(=O)c3ccc(C)cc3)cc2)o1`, the IC50 was 2.27 µM and the IC90 was 5.26 µM.

`COc1ccc(NC(=O)NC(C)C2CC3CCC2C3)cc1` (centres undefined) gave an IC50 of 7.4 µM, an IC90 of over 100 µM and a CC50 of over 40 µM.

For `CC1(C)OC(=O)C(=Cc2ccc[nH]2)C(=O)O1`, the IC50 was under 0.195 µM and the IC90 was over 100 µM.

Compound `COC(=O)c1c(C)oc2ccc(OC(=O)c3cccs3)cc12` has an IC50 of 1.1 µM and an IC90 of 17.8 µM.

`COc1ccc(NCc2ccc([N+](=O)[O-])s2)cc1` was tested, and the IC50 was 59.4 µM and the IC90 was over 100 µM.

`CC(C)[C@H]1C(=O)O[C@H](C(C)C)C(=O)N(C)[C@@H](C(C)C)C(=O)O[C@H](C(C)C)C(=O)N(C)[C@@H](C(C)C)C(=O)O[C@H](C(C)C)C(=O)N1C` was tested, and the IC50 was 7.26 µM, the IC90 was 8.9 µM and the CC50 was 12.3 µM.

`Cc1ccc(S(=O)(=O)Nc2ccc(NC(=O)c3c(F)c(F)c(F)c(F)c3F)cc2)cc1` gave a CC50 of 21.8 µM.

`CCOC(=O)c1c(C)oc2ccc(OC(=O)c3cccs3)cc12` showed an IC50 of 2.08 µM and an IC90 of 13.6 µM.

`O=C(c1ccc2c3c(cccc13)CC2)C1CCCN(Cc2ccccn2)C1` (centres undefined) showed an IC50 of 10 µM, an IC90 of over 100 µM and a CC50 of over 40 µM.

With `O=C(COc1ccccc1[N+](=O)[O-])c1ccccc1` the IC50 was 17 µM, the IC90 was over 100 µM and the CC50 was 30 µM.

`COc1ccc(N2CCN(CC(=O)Nc3nc4c(s3)CC(C)CC4)CC2)cc1` (centres undefined) was tested, and the IC50 was 4.42 µM and the IC90 was 49.1 µM.

`CCOc1ccc(N=C/C=C/c2ccccc2)c(O)c1` showed an IC50 of 0.939 µM, an IC90 of 5.41 µM and a CC50 of 38 µM.

`CNc1cc(C(F)(F)F)nc(-c2ccccn2)n1` gave an IC50 of 40.7 µM and an IC90 of over 100 µM.

Compound `CC(C)OC(=O)CSc1ncnc2c1cnn2-c1ccccc1` has an IC50 of 8.75 µM and an IC90 of 25.2 µM.

For `O=C(/C=C/c1ccccc1)Oc1cccc2cccnc12`, the IC50 was 7.94 µM, the IC90 was 9.54 µM and the CC50 was 37.2 µM.

`Cc1ccc(NCc2nnc(SCC(=O)OC3CCCCC3)o2)c(C)c1` gave an IC50 of 0.332 µM and an IC90 of 1.59 µM.

`CCOC(=O)c1cnc(-n2nc(C)cc2C)nc1NC(C)c1ccccc1` (centres undefined) was tested, and the IC50 was 1.06 µM, the IC90 was 2.08 µM and the CC50 was 36 µM.

Work on `COc1ccc(C[C@H]2CN3C(=NC[C@H]3Cc3ccccc3)N2CCNC(=O)CCC2CCCCC2)cc1` yielded an IC50 of 10.9 µM, an IC90 of 12.3 µM and a CC50 of 29 µM.

In the case of `O=C(Nc1ccc(OC(F)(F)F)cc1)N1CCN(c2ccnc3cc(Cl)ccc23)CC1`, the IC50 is reported as 3.08 µM, the IC90 is reported as 3.51 µM and the CC50 is reported as 8.59 µM.

For `Cc1cc(N2CCN(c3ccccc3)CC2)nc(-n2nc(C)cc2C)n1`, the IC50 was 8.84 µM, the IC90 was 47.3 µM and the CC50 was 18.3 µM.

For `O=C(Nc1nnc(-c2ccccc2)o1)c1cc(Cl)sc1Cl`, the IC50 was 2.4 µM, the IC90 was over 100 µM and the CC50 was over 40 µM.

`CCCCCc1cc(=O)oc2c(C(CCN3CCCC(C)C3)c3ccc(OC)cc3)c(OC)cc(OC)c12` (centres undefined) gave an IC50 of 2.18 µM, an IC90 of 3.26 µM and a CC50 of 17.1 µM.

Work on `O=[N+]([O-])c1ccc(COc2ccc(-c3[nH]ncc3-c3ccc(Cl)cc3)c(O)c2)cc1` yielded an IC50 of 23 µM, an IC90 of over 100 µM and a CC50 of over 40 µM.

Compound `O=C(Nc1nnc(-c2ccccn2)o1)c1cccc(Br)c1` has an IC50 of 12.4 µM, an IC90 of over 100 µM and a CC50 of over 40 µM.

For `CCOC(=O)CSc1nnc(-c2ccc([N+](=O)[O-])cc2)o1`, the IC50 was 0.316 µM and the IC90 was 3.84 µM.

`CCOc1ccc2nc(NC(=O)CSc3nnnn3C3CCCCC3)sc2c1` gave an IC50 of 56.4 µM and an IC90 of over 100 µM.

In the case of `Cc1ccc2cc(/C=C/C(=O)c3ccco3)c(Cl)nc2c1`, the IC50 is reported as 19.3 µM, the IC90 is reported as over 100 µM and the CC50 is reported as over 40 µM.

Work on `CCN(CC)CCCNc1nc2cc(OC)c(OC)cc2c2nc(-c3ccccc3)nn12` yielded an IC50 of 9.3 µM, an IC90 of 13.8 µM and a CC50 of over 40 µM.

`Cc1ccc(OCCN2CCN(CC(O)Cn3c4ccccc4c4ccccc43)CC2)cc1` (centres undefined) gave an IC50 of 9.21 µM, an IC90 of 11.4 µM and a CC50 of 21.5 µM.

Work on `N#Cc1cnc2c(-c3ccccc3)c(-c3ccccc3)nn2c1N` yielded an IC50 of 28.1 µM, an IC90 of over 100 µM and a CC50 of over 40 µM.

`COc1ccc2ncc(OC(C)=O)cc2c1` showed an IC90 of over 100 µM.

`CCOC(=O)C(C)Sc1ncc(-c2ccc(Cl)cc2)cn1` (centres undefined) was tested, and the IC50 was 2.71 µM and the IC90 was 5.04 µM.

`O=C(C[n+]1cnn(CC(=O)c2ccc(Cl)cc2Cl)c1)c1ccc([N+](=O)[O-])cc1` showed an IC50 of 20.3 µM and an IC90 of 36.8 µM.

In the case of `O=C(/C=C/c1ccc(OCCCF)cc1)Nc1ccnc(-c2ccncc2)n1`, the IC50 is reported as 84.1 µM, the IC90 is reported as over 100 µM and the CC50 is reported as over 40 µM.
